In patent publication US7772188B2, “Methods and compositions for the treatment of gastrointestinal disorders” (priority 2003, dated 2010):
No end group written: not given here.

How the values were obtained:
gastrointestinal transit = test: Murine gastrointestinal transit (GIT) assay, charcoal front; assay type: in vivo, mice; conditions: for gastrointestinal transit rate: SEQ ID NO:4 and Zelnorm 0.1 mg/kg, FIG. 3a/3b; for intestinal transit rate versus dosage: recombinantly synthesized peptides, FIG. 4a
Method: In order to determine whether the peptides increase the rate of gastrointestinal transit, the peptides and controls were tested using a murine gastrointestinal transit (GIT) assay (Moon et al. Infection and Immunity 25:127, 1979). In this assay, charcoal, which can be readily visualized in the gastrointestinal tract is administered to mice after the administration of a test compound. The distance traveled by the charcoal is measured and expressed as a percentage of the total length of the […].
Mice were fasted with free access to water for 12 to 16 hours before the treatment with peptide or control buffer. The peptides were orally administered at 1 μg/kg-1 mg/kg of peptide in buffer (20 mM Tris pH 7.5) 7 minutes before being given an oral dose of 5% Activated Carbon (Aldrich 242276-250G). Control mice were administered buffer only before being given a dose of Activated Carbon. After 15 minutes, the mice were sacrificed and their intestines from the stomach to the cecum were dissected. The total length of the intestine as well as the distance traveled from the stomach to the charcoal front was measured for each animal and the results are expressed as the percent of the total length of the intestine traveled by the charcoal front. All results are reported as the average of 10 mice±standard deviation. A comparison of the distance traveled by the charcoal between the mice treated with peptide versus the mice treated with vehicle alone was performed using a Student's t test and a statistically significant difference was considered for P<0.05. P-values are calculated using a two-sided T-Test assuming unequal variances.
The identical experiment was performed to determine if SEQ ID NO:3 is effective in a chronic dosing treatment regimen. Briefly, 8 week old CD1 female mice are dosed orally once a day for 5 days with either SEQ ID NO:3 (0.06 mg/kg or 0.25 mg/kg in 20 mM Tris pH 7.5) or vehicle alone (20 mM Tris pH 7.5). On the 5th day, a GIT assay is performed identical to that above except 200 μl of a 10% charcoal solution is administered. […] The results are shown side by side with acute dosing (1 day).

intestinal secretion = test: Suckling mouse model of intestinal secretion (SuMi assay); assay type: in vivo; conditions: suckling mice
Method: In this model a test compound is administered to suckling mice that are between 7 and 9 days old. After the mice are sacrificed, the gastrointestinal tract from the stomach to the cecum is dissected (“guts”). The remains (“carcass”) as well as the guts are weighed and the ratio of guts to carcass weight is calculated. If the ratio is above 0.09, one can conclude that the test compound increases intestinal secretion. […] The effect of Zelnorm® was also studied.

intestinal GC-C receptor = target: T1, intestinal GC-C receptor (Homo sapiens, UniProt P25092); test: Intestinal GC-C receptor activity assay (cyclic GMP by EIA in T84 cells); assay type: cell-based; conditions: chemically synthesized peptides, FIG. 2
T1 construct: host or cells: T84 human colon carcinoma cells
Method: The ability of SEQ ID NO:5, SEQ ID NO:4, and SEQ ID NO:3 to activate the intestinal GC-C receptor was assessed in an assay employing the T84 human colon carcinoma cell line (American Type Culture Collection (Bethesda, Md.)). For the assays cells were grown to confluency in 24-well culture plates with a 1:1 mixture of Ham's F12 medium and Dulbecco's modified Eagle's medium (DMEM), supplemented with 5% fetal calf serum and were used at between passages 54 and 60.
Briefly, monolayers of T84 cells in 24-well plates were washed twice with 1 ml/well DMEM, then incubated at 37° C. for 10 min with 0.45 ml DMEM containing 1 mM isobutylmethylxanthine (IBMX), a cyclic nucleotide phosphodiesterase inhibitor. Test peptides (50 μl) were then added and incubated for 30 minutes at 37° C. The media was aspirated and the reaction was then terminated by the addition of ice cold 0.5 ml of 0.1N HCl. The samples were held on ice for 20 minutes and then evaporated to dryness using a heat gun or vacuum centrifugation. The dried samples were resuspended in 0.5 ml of phosphate buffer provided in the Cayman Chemical Cyclic GMP EIA kit (Cayman Chemical, Ann Arbor, Mich.). Cyclic GMP was measured by EIA according to procedures outlined in the Cayman Chemical Cyclic GMP EIA kit.

[1] = target: T2, GC-C receptors found in rat intestinal mucosa (Rattus norvegicus, UniProt P23897); parameters: Intestinal mucosa was extruded from the intestine by gentle pressure; from tissue; host or cells: rat small-intestinal epithelial cells (mucosa), used as a cell suspension; conditions: same assay, observed by Giannella et al.; cited from earlier work
T2 sequence (P23897 23-1072): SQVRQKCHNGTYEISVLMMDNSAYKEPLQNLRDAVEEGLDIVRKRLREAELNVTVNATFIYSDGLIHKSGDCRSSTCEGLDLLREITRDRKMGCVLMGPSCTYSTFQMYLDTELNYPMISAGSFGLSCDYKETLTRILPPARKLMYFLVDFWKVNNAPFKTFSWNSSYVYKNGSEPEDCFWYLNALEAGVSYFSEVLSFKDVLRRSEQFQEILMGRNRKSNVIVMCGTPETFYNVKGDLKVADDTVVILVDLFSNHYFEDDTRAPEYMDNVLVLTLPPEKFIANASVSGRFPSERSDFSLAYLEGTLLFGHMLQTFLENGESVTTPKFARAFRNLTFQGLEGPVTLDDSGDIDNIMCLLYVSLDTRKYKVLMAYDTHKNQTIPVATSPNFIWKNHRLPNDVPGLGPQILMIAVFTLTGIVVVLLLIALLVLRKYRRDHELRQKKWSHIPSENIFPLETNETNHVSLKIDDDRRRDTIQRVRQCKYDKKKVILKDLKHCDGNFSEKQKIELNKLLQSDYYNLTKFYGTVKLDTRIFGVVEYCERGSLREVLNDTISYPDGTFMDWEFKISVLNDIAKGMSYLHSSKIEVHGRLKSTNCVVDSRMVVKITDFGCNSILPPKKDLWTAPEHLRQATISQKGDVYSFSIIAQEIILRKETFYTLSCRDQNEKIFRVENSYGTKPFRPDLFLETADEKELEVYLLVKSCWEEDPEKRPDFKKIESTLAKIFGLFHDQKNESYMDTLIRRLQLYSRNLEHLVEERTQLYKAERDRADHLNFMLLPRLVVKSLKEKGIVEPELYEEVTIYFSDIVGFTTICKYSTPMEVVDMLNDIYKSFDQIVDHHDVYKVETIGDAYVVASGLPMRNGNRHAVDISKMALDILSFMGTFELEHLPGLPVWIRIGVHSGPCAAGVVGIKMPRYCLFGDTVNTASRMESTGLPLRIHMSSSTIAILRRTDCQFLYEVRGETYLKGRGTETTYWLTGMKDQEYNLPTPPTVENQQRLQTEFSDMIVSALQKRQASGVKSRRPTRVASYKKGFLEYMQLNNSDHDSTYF

PBQ-induced writhing = test: Phenylbenzoquinone (PBQ)-induced writhing model
[2] = recombinant peptides, dose response, FIG. 6a

T1 sequence (P25092 24-1073): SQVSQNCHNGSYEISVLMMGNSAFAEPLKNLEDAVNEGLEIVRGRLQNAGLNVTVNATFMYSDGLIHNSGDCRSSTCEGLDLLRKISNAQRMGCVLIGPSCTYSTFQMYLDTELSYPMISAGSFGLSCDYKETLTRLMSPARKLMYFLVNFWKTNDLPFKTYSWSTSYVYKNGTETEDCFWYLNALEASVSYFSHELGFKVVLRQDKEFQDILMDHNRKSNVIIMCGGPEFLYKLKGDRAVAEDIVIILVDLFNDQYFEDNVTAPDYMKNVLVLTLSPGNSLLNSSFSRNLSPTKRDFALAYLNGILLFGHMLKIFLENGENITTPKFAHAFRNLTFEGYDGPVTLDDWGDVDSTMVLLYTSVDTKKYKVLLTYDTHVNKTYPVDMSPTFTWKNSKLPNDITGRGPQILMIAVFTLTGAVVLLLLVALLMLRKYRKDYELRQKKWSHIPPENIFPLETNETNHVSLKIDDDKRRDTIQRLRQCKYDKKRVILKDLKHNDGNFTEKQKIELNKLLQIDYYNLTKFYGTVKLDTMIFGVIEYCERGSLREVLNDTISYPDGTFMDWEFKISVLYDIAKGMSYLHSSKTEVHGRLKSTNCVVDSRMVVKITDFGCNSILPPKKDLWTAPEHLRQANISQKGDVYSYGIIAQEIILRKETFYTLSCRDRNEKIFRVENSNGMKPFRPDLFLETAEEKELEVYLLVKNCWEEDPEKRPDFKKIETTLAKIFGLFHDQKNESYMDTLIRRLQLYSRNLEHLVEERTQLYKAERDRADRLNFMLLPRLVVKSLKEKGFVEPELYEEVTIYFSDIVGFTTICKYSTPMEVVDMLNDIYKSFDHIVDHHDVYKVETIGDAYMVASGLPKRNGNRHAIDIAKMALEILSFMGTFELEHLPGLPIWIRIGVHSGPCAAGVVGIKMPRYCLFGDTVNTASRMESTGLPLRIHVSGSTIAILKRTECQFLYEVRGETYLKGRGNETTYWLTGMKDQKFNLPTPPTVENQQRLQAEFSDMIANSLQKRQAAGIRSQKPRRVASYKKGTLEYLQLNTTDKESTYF

Compound | gastrointestinal transit rate (gastrointestinal transit; acute, oral, mice) | effect in mouse gastrointestinal motility assay upon chronic dosing (gastrointestinal transit; oral once a day for 5 days, CD1 female mice, FIG. 4c) | intestinal secretion (guts to carcass weight ratio) (intestinal secretion; 0.2 mg/kg, FIG. 5) | activity in GC-C receptor activity assay (intestinal GC-C receptor) | intestinal transit rate versus Tris buffer or equivalent dose of Zelnorm (gastrointestinal transit; acute, oral, mice, chemically synthesized peptides, FIG. 4b) | intestinal transit rate versus dosage (gastrointestinal transit; acute, oral, mice) | intestinal secretion (guts to carcass weight ratio) (intestinal secretion; dose response, FIG. 5a/5b) | intestinal secretion (guts to carcass weight ratio) (intestinal secretion; [2]) | Kd [1] [µM] | antinociceptive effect relative to indomethacin (PBQ-induced writhing; mouse PBQ writhing, visceral pain model) | writhings compared to the vehicle control (PBQ-induced writhing; mouse, oral, 1 mg/kg dose, FIG. 8a)
[H]/N=C(/NCCCCC)N/N=C/c1c[nH]c2ccc(OC)cc12 [Zelnorm®, tegaserod] | increase gastrointestinal transit rate | effective | does not increase intestinal secretion |  |  |  |  |  |  |  | 
NSSNYCCELCCNPACTGCY [SEQ ID NO:4, Asn Ser Ser Asn Tyr Cys Cys Glu Leu Cys Cys Asn Pro Ala Cys Thr Gly Cys Tyr] | increase gastrointestinal transit rate |  |  | activity comparable to SEQ ID NO:4 | increase intestinal transit rates more than either Tris buffer alone or an equivalent dose of Zelnorm® | intestinal transit rate increases with an increasing dosage | increase intestinal secretion | increase intestinal secretion | ~0.013 |  | 
NSSNYCCEYCCNPACTGCY (cysteine pairing not given here) [SEQ ID NO:5] |  |  |  |  |  | intestinal transit rate increases with an increasing dosage |  | increase intestinal secretion |  | antinociceptive effects in this visceral pain model comparable to the intermediate doses of indomethacin | Significant reductions in writhings
